Where “and” joins values, the source holds several entries; their conditions need not be identical. Identical values can stand only once. ± gives the uncertainty stated by the source.
Experiment: xn = mol fraction of the nth substance listed

CCc1ccccc1 + c1ccccc1
Conditions | viscosity
293.15 K, 101.33 kPa, x2 = 0.2323 | 0.657 ± 0.0058 mPa·s
293.15 K, 101.33 kPa, x2 = 0.4707 | 0.646 ± 0.0057 mPa·s
293.15 K, 101.33 kPa, x2 = 0.5427 | 0.644 ± 0.0057 mPa·s
293.15 K, 101.33 kPa, x2 = 0.7124 | 0.635 ± 0.0057 mPa·s
293.15 K, 101.33 kPa, x2 = 0.8608 | 0.64 ± 0.0057 mPa·s
298.15 K, 101.3 kPa, x2 = 0.0268 | 0.632 ± 0.0054 mPa·s
298.15 K, 101.3 kPa, x2 = 0.1358 | 0.6249 ± 0.0053 mPa·s
298.15 K, 101.3 kPa, x2 = 0.2562 | 0.6202 ± 0.0053 mPa·s
298.15 K, 101.3 kPa, x2 = 0.3579 | 0.6177 ± 0.0053 mPa·s
298.15 K, 101.3 kPa, x2 = 0.4426 | 0.6157 ± 0.0053 mPa·s
298.15 K, 101.3 kPa, x2 = 0.5472 | 0.6134 ± 0.0052 mPa·s
298.15 K, 101.3 kPa, x2 = 0.6302 | 0.6115 ± 0.0052 mPa·s
298.15 K, 101.3 kPa, x2 = 0.7423 | 0.608 ± 0.0052 mPa·s
298.15 K, 101.3 kPa, x2 = 0.8318 | 0.6056 ± 0.0052 mPa·s
298.15 K, 101.3 kPa, x2 = 0.9404 | 0.6027 ± 0.0052 mPa·s
298.15 K, 101.33 kPa, x1 = 0.1 | 0.599 ± 0.016 mPa·s
298.15 K, 101.33 kPa, x1 = 0.2 | 0.601 ± 0.006 mPa·s and 0.601 ± 0.016 mPa·s
298.15 K, 101.33 kPa, x1 = 0.4 | 0.603 ± 0.016 mPa·s
298.15 K, 101.33 kPa, x1 = 0.5 | 0.607 ± 0.0061 mPa·s and 0.607 ± 0.016 mPa·s
298.15 K, 101.33 kPa, x1 = 0.6 | 0.608 ± 0.016 mPa·s
298.15 K, 101.33 kPa, x1 = 0.8 | 0.616 ± 0.017 mPa·s
298.15 K, 101.33 kPa, x2 = 0.145 | 0.6185 ± 0.0062 mPa·s
298.15 K, 101.33 kPa, x2 = 0.2147 | 0.6165 ± 0.0062 mPa·s
298.15 K, 101.33 kPa, x2 = 0.2942 | 0.6156 ± 0.0062 mPa·s
298.15 K, 101.33 kPa, x2 = 0.4187 | 0.6078 ± 0.0061 mPa·s
298.15 K, 101.33 kPa, x2 = 0.4944 | 0.6057 ± 0.0061 mPa·s
298.15 K, 101.33 kPa, x2 = 0.5926 | 0.6038 ± 0.006 mPa·s
298.15 K, 101.33 kPa, x2 = 0.6887 | 0.6029 ± 0.006 mPa·s
298.15 K, 101.33 kPa, x2 = 0.7786 | 0.6012 ± 0.006 mPa·s
298.15 K, 101.33 kPa, x2 = 0.8938 | 0.6006 ± 0.006 mPa·s
298.15 K, 101.33 kPa, x2 = 0.9568 | 0.6008 ± 0.006 mPa·s
303.15 K, 101.3 kPa, x2 = 0.1358 | 0.5881 ± 0.0051 mPa·s
303.15 K, 101.3 kPa, x2 = 0.2562 | 0.5827 ± 0.005 mPa·s
303.15 K, 101.3 kPa, x2 = 0.3579 | 0.5777 ± 0.005 mPa·s
303.15 K, 101.3 kPa, x2 = 0.4426 | 0.5744 ± 0.005 mPa·s
303.15 K, 101.3 kPa, x2 = 0.5472 | 0.571 ± 0.005 mPa·s
303.15 K, 101.3 kPa, x2 = 0.6302 | 0.5678 ± 0.005 mPa·s
303.15 K, 101.3 kPa, x2 = 0.7423 | 0.5637 ± 0.0049 mPa·s
303.15 K, 101.3 kPa, x2 = 0.8318 | 0.5608 ± 0.0049 mPa·s
303.15 K, 101.3 kPa, x2 = 0.9404 | 0.5574 ± 0.0049 mPa·s
303.15 K, 101.33 kPa, x2 = 0.2323 | 0.583 ± 0.0053 mPa·s
303.15 K, 101.33 kPa, x2 = 0.4707 | 0.57 ± 0.0052 mPa·s
303.15 K, 101.33 kPa, x2 = 0.5427 | 0.568 ± 0.0052 mPa·s
303.15 K, 101.33 kPa, x2 = 0.7124 | 0.56 ± 0.0051 mPa·s
303.15 K, 101.33 kPa, x2 = 0.8608 | 0.561 ± 0.0051 mPa·s
308.15 K, 101.33 kPa, x1 = 0.1 | 0.528 ± 0.014 mPa·s
308.15 K, 101.33 kPa, x1 = 0.2 | 0.53 ± 0.014 mPa·s
308.15 K, 101.33 kPa, x1 = 0.4 | 0.535 ± 0.014 mPa·s
308.15 K, 101.33 kPa, x1 = 0.6 | 0.542 ± 0.015 mPa·s
308.15 K, 101.33 kPa, x1 = 0.8 | 0.551 ± 0.015 mPa·s
313.15 K, 101.33 kPa, x2 = 0.2323 | 0.521 ± 0.0048 mPa·s
313.15 K, 101.33 kPa, x2 = 0.5427 | 0.506 ± 0.0047 mPa·s
313.15 K, 101.33 kPa, x2 = 0.7124 | 0.498 ± 0.0046 mPa·s
313.15 K, 101.33 kPa, x2 = 0.8608 | 0.493 ± 0.0046 mPa·s
318.15 K, 101.33 kPa, x1 = 0.1 | 0.468 ± 0.013 mPa·s
318.15 K, 101.33 kPa, x1 = 0.2 | 0.471 ± 0.013 mPa·s
318.15 K, 101.33 kPa, x1 = 0.4 | 0.477 ± 0.013 mPa·s
318.15 K, 101.33 kPa, x1 = 0.5 | 0.481 ± 0.013 mPa·s
318.15 K, 101.33 kPa, x1 = 0.6 | 0.484 ± 0.013 mPa·s
318.15 K, 101.33 kPa, x1 = 0.8 | 0.492 ± 0.013 mPa·s
318.15 K, 101.33 kPa, x2 = 0.145 | 0.4939 ± 0.0049 mPa·s
318.15 K, 101.33 kPa, x2 = 0.2147 | 0.4912 ± 0.0049 mPa·s
318.15 K, 101.33 kPa, x2 = 0.2942 | 0.4912 ± 0.0049 mPa·s
318.15 K, 101.33 kPa, x2 = 0.4187 | 0.4812 ± 0.0048 mPa·s
318.15 K, 101.33 kPa, x2 = 0.4944 | 0.4774 ± 0.0048 mPa·s
318.15 K, 101.33 kPa, x2 = 0.5926 | 0.4737 ± 0.0047 mPa·s
318.15 K, 101.33 kPa, x2 = 0.6887 | 0.469 ± 0.0047 mPa·s
318.15 K, 101.33 kPa, x2 = 0.7786 | 0.4657 ± 0.0047 mPa·s
318.15 K, 101.33 kPa, x2 = 0.8938 | 0.4621 ± 0.0046 mPa·s
318.15 K, 101.33 kPa, x2 = 0.9568 | 0.4607 ± 0.0046 mPa·s
323.15 K, 101.33 kPa, x1 = 0.1 | 0.44 ± 0.012 mPa·s
323.15 K, 101.33 kPa, x1 = 0.2 | 0.443 ± 0.0044 mPa·s and 0.443 ± 0.012 mPa·s
323.15 K, 101.33 kPa, x1 = 0.4 | 0.449 ± 0.012 mPa·s
323.15 K, 101.33 kPa, x1 = 0.5 | 0.453 ± 0.0045 mPa·s and 0.453 ± 0.012 mPa·s
323.15 K, 101.33 kPa, x1 = 0.6 | 0.456 ± 0.012 mPa·s
323.15 K, 101.33 kPa, x1 = 0.8 | 0.466 ± 0.013 mPa·s
323.15 K, 101.33 kPa, x2 = 0.2323 | 0.469 ± 0.0044 mPa·s
323.15 K, 101.33 kPa, x2 = 0.4707 | 0.456 ± 0.0043 mPa·s
323.15 K, 101.33 kPa, x2 = 0.5427 | 0.453 ± 0.0043 mPa·s
323.15 K, 101.33 kPa, x2 = 0.7124 | 0.443 ± 0.0042 mPa·s
323.15 K, 101.33 kPa, x2 = 0.8608 | 0.44 ± 0.0042 mPa·s
